Laboratory results published in US9035021B2, “Somatostatin analogues” (Novartis AG, priority 2001, dated 2015).
pIC50: −log10 of the molar value. *1 amine or outer side, *2 acyl side, *3 side chain or, on linkers, in order; H or OH if unused. Where a SMILES comes first, the peptide text is derived from it. Side-chain parts run from the residue outwards. [ ]: non-standard residue; d: D form. The star is where a group is joined. Ethylenediamine = C(CN[*:2])N[*:1]; Hyp = O=C(O)[C@@H]1C[C@@H](O)CN1; Phg = N[C@H](C(=O)O)c1ccccc1; CO = O=C([*:1])[*:2]; Bn = c1ccc(C*)cc1

Assays:
carotid artery grafts = assay: Carotid artery loop transplantation model; format: in vivo, mice; conditions: 50 μg/kg/h s.c. mini-pump, grafts harvested at 30 days, compared with non-treated animals
Experimental: Compound A has also been tested in a carotid artery loop transplantation model using B10.A (2R) (H-2h^2) mice as donor and B10.BR(H-2^k) mice as recipient. In brief, the donor carotid artery is transplanted paratopically as a loop into the recipient's carotid artery by an end-to-side anastomosis. A mini-pump is placed s.c. immediately after transplantation that delivers Compound A at a rate of 50 μg/kg/h. Carotid artery grafts are harvested at 30 days after transplantation to analyse vascular remodeling e.g. by morphometric analysis of Verhoeff elastin stained paraffin sections using a computer-assisted system.

heart allograft = assay: Heterotopic mouse heart allotransplantation model; format: in vivo
hsst3 = molecular target: T1, hsst3 (Homo sapiens, UniProt P32745); assay: Binding assay, membranes from cell lines expressing hsst3, [125I-Tyr11]-SRIF-14 radioligand; conditions: competition binding
T1 construct: expressed in transfected cells
Experimental: (§1) The experiments are carried out in triplicate.

hsst5 = molecular target: T2, hsst5 (Homo sapiens, UniProt P35346); assay: Binding assay, membranes from cell lines expressing hsst5, [125I-Tyr11]-SRIF-14 radioligand; conditions: competition binding
T2 construct: expressed in transfected cells
Experimental: as §1

GH = assay: Monkey studies, inhibition of GH; format: in vivo
hsst1 = hsst1 (Homo sapiens, UniProt P30872); assay: biochemical
Experimental: The binding assays may be carried out as disclosed hereunder using membranes from cell lines expressing selectively and stably hsst1, hsst2, hsst3, hsst4 or hsst5, e.g. CHO or COS cells.
Membranes prepared from hsst selective cell lines, e.g. CHO or COS cells stably expressing hsst1 or hsst2 or hsst3 or hsst4 or hsst5 are incubated in triplicate in a total volume of 300 μl at 22° C. for 30 min with increasing concentrations of [^125I-Tyr^11]-SRIF-14 in 10 mmol/l Hepes buffer (pH 7.6) containing 0.5% BSA. The incubation is terminated by rapid filtration and the filters are counted in a counter. Specific binding is total binding minus non-specific binding in the presence of 1 μmol/l somatostatin-14. The experiments are carried out in triplicate. The affinity constant (KD) and number of binding sites are calculated using appropriate statistics and graphical programs.

[1] = molecular target: growth hormone secretagogue receptors (Homo sapiens, UniProt Q92847)
Excerpt: Such receptors are disclosed by G. Muccioli et al., J. Endocrinol. 1998, 157, 99-106, by H. Ong et al., in Endocrinology 1998, 139, 432-435 and by R. G. Smith et al., Norm. Res., 1999, 3), 1-8. The binding assay to these receptors may be carried out as disclosed in J. Endocrinol. Invest. 24: RC1-RC3, 2001.

insulin secretion = assay: Similar assay for measuring the effect on insulin; parameters: species or system rats; conditions: rat, in vivo
carotid artery neointima = assay: Angioplasty, rat model of balloon catheter injury; format: in vivo; conditions: 10 μg/kg/h continuous infusion, 14 days after balloon injury
Experimental: Studies on angioplasty are done in the rat model of balloon catheter injury. Balloon catheterization is performed on day 0, essentially as described by Powell et al. (1989). Under Isofluorane anaesthesia, a Fogarty 2F catheter is introduced into the left common carotid artery to obtain a uniform de-endothelialization. The catheter is then removed, a ligature placed around the external carotid to prevent bleeding and the animals allowed to recover. 2 groups of 12 RoRo rats (400 g, approximately 24 weeks old) are used for the study: one control group and one group receiving Compound A and the rats are fully randomized. Compound A is administered by continuous infusion using minipumps at a rate of 10 μg/kg/h starting 2 days before balloon injury […] until the end of the study, 14 days after balloon injury. The rats are then anaesthetized with Isofluorane and perfused with 0.1 M phosphate buffered saline solution (PBS, pH 7.4) and then for 15 min. with 2.5% glutaraldehyde in phosphate buffer (pH 7.4). Carotid arteries are then excised, separated from surrounding tissue and immersed in 0.1 M cacodylate buffer (pH 7.4) containing 7% saccharose and incubated overnight at 4° C. […] The cross-sectional area of the media, neointima and the lumen are evaluated morphometrically by means of an image analysis system (MCID, Toronto, Canada).

blood vessel formation = assay: Angiogenesis test in nude mice (SiHa and MDA MB-231 cells); format: in vivo; conditions: dose e.g. 0.01 to 1000 μg/kg s.c.
Experimental: Compound A also has an inhibiting effect on angiogenesis, as indicated in standard tests, e.g. in nude mice. Briefly, tumor cells (0.1 to 10×10^6 in 0.1 ml) (SiHa cells and MDA MB-231 cells prepared as disclosed in Angiogenesis, Ed. by R. Steiner, P. B. Weisz and R. Langer, 1992, Switzerland) are inoculated intracutaneously. Usually two midventral sites/mouse are injected which are located distant from the main ventral skin vessels so that the background vessel count is low. Control groups receive 0.1 ml 0.02% trypan blue in PBS. 10 days following injection, anesthetized mice are sacrificed by CO2 inhalation. The skin is mounted onto a plastic ring (40 mm diameter) for evaluation by an inverted microscope (Zeiss IM) at 12.5- and 25-fold magnification. As a measure of angiogenesis, vessels are photographed and those are counted that are directly connected with the tumor. In control animals those vessels are counted that are connected to a defined area around the injection site. This area corresponds to the mean area of the dermal tumors. The latter is determined by use of a caliper according to the equation 3.14×r^2. Compound A is administered s.c. either on the day of tumor inoculation or 3 days later. Control animals are vehicle-treated.

kidney allograft = assay: Chronic allograft rejection, rat kidney allograft model; format: in vivo; conditions: 10 μg/kg/h infusion
Experimental: Chronic Allograft Rejection
The kidney of a male DA (RT1^a) rat is orthotopically transplanted into a male Lewis (RT1^1) recipient. In total 24 animals are transplanted. All animals are treated with cyclosporine A at 7.5 mg/kg/day per os for 14 days starting on the day of transplantation, to prevent acute cellular rejection. Contralateral nephrectomy is not performed. Each experimental group treated with a distinct dose of Compound A or placebo comprises six animals. Starting 14 days after transplantation, the recipient animals are treated up to 112 days by infusion with Compound A or receive placebo. At 14 days after transplantation organ perfusion is measured by MRI. This is repeated at days 53-64 after transplantation and at the end of the experiment. The animals are then autopsied.

growth hormone release = assay: Inhibition of growth hormone (GH) release in rats; format: in vivo; conditions: s.c., 6 h, anaesthetized rats
Experimental: Compound A inhibits the release of growth hormone (GH) in rats. Compound A is administered s.c. to anaesthetized rats. Blood is collected after decapitation 1 h after administration of the compound. The duration of action is estimated on the basis of the inhibition of basal GH secretion 6 h after drug treatment. Hormone levels are measured by RIA 1 h and 6 h after treatment. The ID50-value for the inhibition of the hormone secretion is determined graphically (log-probit) for each experiment and the resulting values are averaged logarithmically.

cultured pituitary cells = assay: Inhibition of GH release in vitro from cultured pituitary cells; format: cell-based, rats; conditions: rat anterior pituitary cells, three hours, in the presence of 3×10^−10 M growth hormone releasing factor, RIA
Experimental: For example, anterior pituitary glands from adult male rats are cut into small pieces and dispersed using 0.1% trypsin in 20 mM HEPES buffer. The dispersed cells are cultured for four days in MEM (Gibco) supplemented with 5% fetal calf serum, 5% horse serum, 1 mM NaHCO3, 2.5 nM dexamethasone, […] and 20 U/ml Pen/Strep. On the day of the experiment the attached cells are washed two times with Krebs-Ringer medium buffered with 20 mM HEPES and supplemented with 5 mM glucose and 0.2% BSA. Subsequently the cells are incubated for three hours with Compound A in the presence of 3×10^−10 M growth hormone releasing factor. The amount of growth hormone released into the medium is measured by RIA. Compound A has an IC50 of 0.4 nM in this assay.

Plasma half-life = format: in vivo; conditions: read-out: Elimination half-life
Experimental: Compound A has a beneficial plasma half-life. It has an elimination half-life between 15 and 30 hours.

IGF-1 plasma levels = IGF-1 plasma levels in vivo in male rats
Experimental: Furthermore, Compound A inhibits IGF-1 plasma levels in vivo as indicated in standard tests using male rats. Briefly, Compound A is administered by osmotic pump implanted s.c. to male rats of a Lewis strain. Blood samples are collected from the retrobulbar plexus using a short anesthesia with e.g. isoflurane.

hsst4 = molecular target: T3, hsst4 (Homo sapiens, UniProt P31391); assay: Binding assay, membranes from cell lines expressing hsst4, [125I-Tyr11]-SRIF-14 radioligand; conditions: competition binding
T3 construct: expressed in transfected cells
Experimental: as §1

[2] = diabetic monkeys
hsst2 = molecular target: T4, hsst2 (Homo sapiens, UniProt P30874); assay: Binding assay, membranes from cell lines expressing hsst2, [125I-Tyr11]-SRIF-14 radioligand; conditions: competition binding
T4 construct: expressed in transfected cells
Experimental: as §1

Chain of growth hormone secretagogue receptors (Q92847 whole entry): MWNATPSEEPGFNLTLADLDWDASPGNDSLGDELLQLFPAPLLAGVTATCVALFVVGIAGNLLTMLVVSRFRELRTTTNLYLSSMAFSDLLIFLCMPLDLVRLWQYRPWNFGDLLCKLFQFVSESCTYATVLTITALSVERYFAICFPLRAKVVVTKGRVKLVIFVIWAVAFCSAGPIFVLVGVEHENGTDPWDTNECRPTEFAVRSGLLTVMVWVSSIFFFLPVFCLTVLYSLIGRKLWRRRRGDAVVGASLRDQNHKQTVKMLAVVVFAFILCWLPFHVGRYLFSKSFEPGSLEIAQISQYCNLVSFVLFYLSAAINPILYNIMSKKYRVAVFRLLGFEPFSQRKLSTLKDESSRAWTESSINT
Chain of hsst1 (P30872 whole entry): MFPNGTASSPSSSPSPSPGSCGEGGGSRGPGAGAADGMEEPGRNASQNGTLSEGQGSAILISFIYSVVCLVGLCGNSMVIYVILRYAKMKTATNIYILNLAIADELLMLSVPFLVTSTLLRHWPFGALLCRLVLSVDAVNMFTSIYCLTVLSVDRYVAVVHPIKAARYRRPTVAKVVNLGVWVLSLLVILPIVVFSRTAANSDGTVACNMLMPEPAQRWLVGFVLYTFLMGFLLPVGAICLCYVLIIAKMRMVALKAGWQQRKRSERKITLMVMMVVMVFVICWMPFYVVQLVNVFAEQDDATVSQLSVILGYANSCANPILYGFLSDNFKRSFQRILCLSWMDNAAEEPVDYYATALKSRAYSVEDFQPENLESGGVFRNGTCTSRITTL
T4 sequence (P30874 whole entry): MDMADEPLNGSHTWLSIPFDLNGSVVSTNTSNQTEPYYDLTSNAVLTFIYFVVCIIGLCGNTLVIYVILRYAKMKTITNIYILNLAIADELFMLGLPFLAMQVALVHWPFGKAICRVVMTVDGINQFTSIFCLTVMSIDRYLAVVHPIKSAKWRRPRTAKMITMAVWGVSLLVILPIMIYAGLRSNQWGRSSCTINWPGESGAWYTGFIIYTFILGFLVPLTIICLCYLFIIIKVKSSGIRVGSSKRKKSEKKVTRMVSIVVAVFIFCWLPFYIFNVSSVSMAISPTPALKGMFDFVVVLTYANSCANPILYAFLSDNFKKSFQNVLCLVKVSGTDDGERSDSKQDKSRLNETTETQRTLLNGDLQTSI
T1 sequence (P32745 whole entry): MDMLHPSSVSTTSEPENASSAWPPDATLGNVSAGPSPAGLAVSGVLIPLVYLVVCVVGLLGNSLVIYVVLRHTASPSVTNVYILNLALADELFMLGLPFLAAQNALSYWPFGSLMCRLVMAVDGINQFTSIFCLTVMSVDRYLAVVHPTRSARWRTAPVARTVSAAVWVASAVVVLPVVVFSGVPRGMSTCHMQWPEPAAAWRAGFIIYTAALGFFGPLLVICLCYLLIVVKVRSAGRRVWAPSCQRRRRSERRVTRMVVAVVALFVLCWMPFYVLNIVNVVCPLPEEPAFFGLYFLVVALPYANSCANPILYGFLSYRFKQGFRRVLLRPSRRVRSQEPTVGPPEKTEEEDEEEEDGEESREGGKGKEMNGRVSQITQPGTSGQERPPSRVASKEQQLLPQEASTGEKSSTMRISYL
T2 sequence (P35346 whole entry): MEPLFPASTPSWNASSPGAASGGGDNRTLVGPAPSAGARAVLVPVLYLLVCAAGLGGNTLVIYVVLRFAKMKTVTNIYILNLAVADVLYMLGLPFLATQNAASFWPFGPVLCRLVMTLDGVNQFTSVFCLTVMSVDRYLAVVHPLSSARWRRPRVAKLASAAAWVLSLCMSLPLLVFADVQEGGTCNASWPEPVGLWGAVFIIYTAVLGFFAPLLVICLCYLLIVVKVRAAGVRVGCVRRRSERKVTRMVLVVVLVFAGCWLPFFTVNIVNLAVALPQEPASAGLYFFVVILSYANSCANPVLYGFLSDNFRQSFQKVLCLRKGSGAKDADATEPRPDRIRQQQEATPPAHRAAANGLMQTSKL
T3 sequence (P31391 whole entry): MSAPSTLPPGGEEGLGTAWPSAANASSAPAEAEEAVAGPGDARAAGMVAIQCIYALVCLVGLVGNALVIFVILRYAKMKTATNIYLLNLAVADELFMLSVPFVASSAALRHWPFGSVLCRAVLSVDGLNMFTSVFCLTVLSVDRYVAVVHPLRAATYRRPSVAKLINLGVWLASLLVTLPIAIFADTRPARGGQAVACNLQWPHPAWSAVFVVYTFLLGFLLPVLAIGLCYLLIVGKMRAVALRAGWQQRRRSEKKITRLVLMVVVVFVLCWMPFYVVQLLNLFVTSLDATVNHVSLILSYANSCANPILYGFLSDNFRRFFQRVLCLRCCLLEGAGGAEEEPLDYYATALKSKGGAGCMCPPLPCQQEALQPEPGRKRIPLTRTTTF

**Q.** For `NCCCC[C@@H]1NC(=O)[C@@H](Cc2c[nH]c3ccccc23)NC(=O)[C@H](c2ccccc2)NC(=O)[C@@H]2C[C@@H](OC(=O)NCCN)CN2C(=O)[C@H](Cc2ccccc2)NC(=O)[C@H](Cc2ccc(OCc3ccccc3)cc2)NC1=O` [Compound A, cyclo[{4-(NH2—C2H4—NH—CO—O—)Pro}-Phg-DTrp-Lys-Tyr(4-Bzl)-Phe]] (cyclo([Hyp]([CO-Ethylenediamine])[Phg][dW]KY(Bn)F)), which Neointimal formation (carotid artery grafts) is on record?
**A.** Its Neointimal formation is “inhibits neointimal formation”.

**Q.** And the “Vascular remodelling and graft infiltration” value (heart allograft)?
**A.** Its value is “beneficial effects on vascular remodelling as well as in graft infiltration”.

**Q.** And the pIC50 (hsst3)?
**A.** Its pIC50 is 8.82.

**Q.** And the pIC50 (hsst5)?
**A.** The pIC50 was 9.80.

**Q.** What about the “Inhibition of GH” value (GH) of the same compound?
**A.** Its value is “potent and efficacious inhibition of GH”.

**Q.** What about the pIC50 (hsst1) of the same compound?
**A.** The pIC50 was 8.03.

**Q.** What about the “Displacement of 125I-Tyr-Ala-hexarelin” value [1] of the same compound?
**A.** The value was “displaces ^125I-Tyr-Ala-hexarelin”.

**Q.** And the “Effect on insulin secretion” value (insulin secretion)?
**A.** The value was “inhibits insulin secretion”.

**Q.** What about the Neointimal thickening (carotid artery neointima) of the same compound?
**A.** The Neointimal thickening was “inhibits neointimal thickening significantly”.

**Q.** And the Blood vessel formation (blood vessel formation)?
**A.** The Blood vessel formation was “inhibits blood vessel formation”.

**Q.** And the “Chronic rejection related vascular remodelling and graft infiltration” value (kidney allograft)?
**A.** The value was “reduction in chronic rejection related vascular remodelling and graft infiltration”.

**Q.** What about the IGF-1 levels (kidney allograft) of the same compound?
**A.** The IGF-1 levels was “marked and persistent drop of IGF-1 levels”.

**Q.** And the “Organ perfusion (MRI)” value (kidney allograft)?
**A.** Its value is “improved organ perfusion”.

**Q.** What about the “Mean basal ID50, inhibition of GH secretion” value (growth hormone release) of the same compound?
**A.** Its value is 5.5 µg/kg.

**Q.** What about the pIC50 (cultured pituitary cells) of the same compound?
**A.** Its pIC50 is 9.40.

**Q.** And the half-life (Plasma half-life)?
**A.** Its half-life is 15 to 30 h.

**Q.** And the “Inhibition of IGF-1 plasma levels” value (IGF-1 plasma levels; after 14 days of treatment with 10 μg/kg/h, osmotic pump s.c., male Lewis rats)?
**A.** Its value is “more than 60%”.

**Q.** What about the “Lowering of IGF-1 plasma levels on continuous treatment” value (IGF-1 plasma levels; rat recipients of aorta or kidney allografts, continuous infusion 10 μg/kg/h up to 126 days) of the same compound?
**A.** Its value is “significant and persistent lowering of IGF-1 plasma levels”.

**Q.** And the pIC50 (hsst4)?
**A.** Its pIC50 is < 7.00.

**Q.** And the Antidiabetic/insulin-sensitizing effect [2]?
**A.** Its Antidiabetic/insulin-sensitizing effect is “potent antidiabetic/insulin-sensitizing effect”.

**Q.** What about the pIC50 (hsst2) of the same compound?
**A.** The pIC50 was 9.00.
